Test results published in patent US20230413816A1, “COMPOSITIONS COMPRISING ALLYL SULFIDE AND A SURFACTANT AND METHODS OF USING SAME” (The State of Israel, Ministry of Agriculture & Rural …, priority 2020, published 2023).

What was measured:
[1] = test system: Grapevines; assay: Bud break scored on the BBCH scale, commercial vineyard in South Africa (Example 3); format: in vivo, grapevine; settings: for bud-breaking efficiency compared with commercially available agents (HC): sulfide compound with 2% w/w T7; for bud break score (BBCH scale): 36 days after treatment, untreated score 19
Excerpt: FIGS. 5A-5B are bar graphs presenting a comparison between the bud break efficiency of the exemplary compositions of the invention and controls in vine. The X-axis represents different treatments, and the Y-axis represents vine growth stage according to the BBCH scale, as scored 36 days after treatment. FIG. 5A represents a comparison between the synergistic bud break efficiency of T7 in combination with different sulfide compounds (DADS and dimethyl sulfide, DMS). 1—untreated vines (negative control); 2—2.5% w/w DMS and 2% w/w T7; 3—5% w/w DMS and 2% w/w T7; 4—HC (positive control); 5—5% w/w DADS and 2% w/w T7. FIG. 5B represents a comparison between the synergistic bud break efficiency of 6% w/w DADS in combination with various concentrations of T7 (entries 4-7) versus controls (entries 1-2, and 8). 1—untreated vines (negative control); 2—12% w/w T7 no DADS; 3—6% w/w DADS no T7; 4—6% w/w DADS and 12% w/w T7; 5—6% w/w DADS and 1% w/w T7; 6—6% w/w DADS and 2% w/w T7; 7—6% w/w DADS and 0.5% w/w T7; 8—HC (positive control).
Grapevines in a commercial vineyard in South Africa were sprayed exemplary agricultural compositions of the invention. Two different experimental treatments have been performed on 5 blocks of 14 vines. The bud break efficiency of each treatment has been evaluated by scoring 60 buds per vine according to BBCH scale at different time points after treatment. BBCH values represent average values of five blocks per treatment. The tested exemplary agricultural compositions utilized for each experimental treatment were as follows: • 2% w/w of T7 (see Table 1) together with various concentrations (2.5, 5 and 6% w/w) of the sulfide compound ([…] (DMS); and DADS). The effect of these treatments was compared to a commercial formulation comprising 50% HC; as well as to a negative control, i.e. untreated vines. The results of this experiment are represented in FIG. 5A. • 6% w/w DADS together with various concentrations (0.5, 1, 2 and 12% w/w) of T7. The effect of these treatments was compared to a commercial formulation comprising 50% HC; as well as to negative controls including untreated plant, and plants treated with 12% w/w T7 and 6% w/w DADS, respectively. The results of this experiment are represented in FIG. 5B.

[2] = test system: whole vine; settings: applied to the whole vine rather than to cuttings; cited from earlier work
[3] = test system: Kiwi plants; assay: Bud break trial on kiwi (Example 4); format: in vivo; settings: 49 days after treatment
Excerpt: The inventors performed numerous experiments to assess the effect of application of an exemplary composition of the invention (e.g. about 6% w/w DADS and about 4% w/w T7) on bud break in various plants. For each test from about 500 to about 1500 l/ha of the composition have been applied (e.g. by spraying) to the orchard, to result in almost complete wetting of the treated plants. The tested plant species included kiwi, cherry, apple, and plum.

[4] = test system: spur-pruned cv. Early Sweet vines; assay: Bud breaking on whole vines in a vineyard (Example 1, Jordan Valley); format: in vivo, grapevine
Procedure: FIG. 1 is a graph presenting a comparison between the bud break efficiency of the exemplary compositions of the invention and controls, when applied to spur-pruned cv. Early Sweet vines at the beginning of January in a vineyard located at Argaman, the Jordan Valley, Israel. Bud counts were conducted once a week and started about […] after treatment. The tested combinations were as follows: (a) DADS at 6% w/w, together with (b) 2% w/w of a non-ionic surfactant (abbreviated as T3-D2, T4-D2, T5-D2, T6-D2 or T7-D2, respectively) or of a cationic surfactant (Armobreak®, abbreviated as T1-D2). The controls were as follows: (a) plants treated with Triton X-100 (abbreviated as Con), and (b) single treatments with DADS, HC, and the surfactants (abbreviated as T1, T3, T4, T5, T6 or T7, respectively). The chemical structures of the surfactants are as represented in Table 1, below. The Y-axis represents the percentage of the bursting buds out of the total number of the buds on a vine.
The Y-axis represent the percentage of bursting basal buds out of total number of spurs on a vine.
Mature spur-pruned cv. […]
Each formulation was sprayed onto five blocks of two vines, wherein the values presented in FIG. 1 are an average of the ten tested grapevines. […] Total number of buds was recorded once for each vine, and number of bursting buds were recoded for each vine at 22, 27, 34 and 41 d after treatment.

## C=CCSSCC=C [DADS, diallyl disulfide]
[1]
  bud-breaking efficiency compared with commercially available agents (HC): comparable with the efficiency of commercially available agents
[2]
  bud break enhancing effect compared with HC: very limited and inferior to HC

## CSC [DMS, dimethyl sulfide]
[1]; 2.5% w/w DMS and 2% w/w T7
  bud break score (BBCH scale): 24
[1]; 5% w/w DMS and 2% w/w T7
  bud break score (BBCH scale): 30-31
[1]
  bud-breaking efficiency compared with commercially available agents (HC): comparable with the efficiency of commercially available agents

## N#CN [HC, hydrogen cyanamide]
[3]
  bud break: 24%
  bud break of HC relative to the composition of the invention (times less): ~2 times
  green foliage coverage score (of 10): 2
[4]; 6% w/w DADS + 2% w/w surfactant, or HC, percentage of bursting buds
  bud break efficiency, ranking among the treatments of FIG. 1: superior
[4]; FIG. 3, basal buds
  bud break uniformity along a spur: significantly less uniform bud break
